Experimental data taken from article PMC9233054 (Pharmaceutical development and technology, 2022).
Values after ≈ are worked out from the molar mass of the structure shown.

Columns and labels:
[1] = HPBCD 0 mM (control, D.I. H2O), S0; ref Hamilton 2015; cited from earlier work
physchem = details: water, thermodynamic from solid
[2] = assay type: physicochemical; details: 1:1 cholecalciferol:HPBCD; calculated with theoretic S0

Question: Which results are given for `C=C1CC[C@H](O)C/C1=C/C=C1\CCC[C@]2(C)[C@@H]([C@H](C)CCCC(C)C)CC[C@@H]12` [cholecalciferol]?
Answer: Saturated concentration of vitamin D3 in HPBCD solution (S) [1]: 3.38×10^−8 (S0) ([Hamilton 2015]) mM; Solubility increase ratio (S/S0) (Phase solubility study; HPBCD 0 mM (control, D.I. H2O)): 1; Solubility increase ratio (S/S0) (Phase solubility study; HPBCD 10 mM): 5.92×10^5; Solubility increase ratio (S/S0) (Phase solubility study; HPBCD 40 mM): 1.42×10^7; Solubility increase ratio (S/S0) (Phase solubility study; HPBCD 50 mM): 2.29×10^7; Solubility increase ratio (S/S0) (Phase solubility study; HPBCD 70 mM): 4.56×10^7; Solubility increase ratio (S/S0) (Phase solubility study; HPBCD 100 mM): 9.30×10^7; Solubility increase ratio (S/S0) (Phase solubility study; HPBCD 120 mM): 1.11×10^8; Solubility increase ratio (S/S0) (Phase solubility study; HPBCD 150 mM): 1.90×10^8; Solubility increase ratio (S/S0) (Phase solubility study; HPBCD 170 mM): 2.31×10^8; Solubility increase ratio (S/S0) (Phase solubility study; HPBCD 200 mM): 3.29×10^8; solubility increase ratio (Phase solubility study; different HPBCD molarities (Table 1)): enhanced by five or more orders of magnitude; solubility at 3 days (physchem): 1.6 µM (≈ 0.615 µg/mL); stability constant K1:1 [2]: 71900 mM⁻¹
